One data set is described as follows: physchem. The conditions noted are these: oil or lipid, thermodynamic from solid.
A short description of data set [1]: Solubility of fatty acids in squalene. The conditions noted are these: for solubility: oil or lipid, thermodynamic from solid.
Where [2] appears, read: 4 °C, solubility in squalene, 4° C. (overnight), solution at the fatty acid's top concentration left at 4° C. overnight.
[3] abbreviates: 60 °C, solubility in squalene at 5 mg/mL, mixed with squalene at 60° C.
Setting [4] is: 60 °C, solubility in squalene at 10 mg/mL, mixed with squalene at 60° C.
Setting [5] is: 60 °C, solubility in squalene at 20 mg/mL, mixed with squalene at 60° C.
The mark [6] stands for this setting: 60 °C, solubility in squalene at 40 mg/mL, mixed with squalene at 60° C.

For the compound `CCCCCCCCCCCCCCCCCCCCC(=O)O` [Heneicosanoic Acid], the solubility in the data set “physchem” (setting [2]) is less than 40 mg/mL; in the data set “physchem” (setting [3]), less than 5 mg/mL; in “physchem” (setting [4]), less than 10 mg/mL; in “physchem” (setting [5]) it was less than 20 mg/mL; in the data set “physchem” (setting [6]), less than 40 mg/mL.
Regarding `CCCCCCCCCCC(=O)O` [Undecanoic Acid], the solubility in the data set “physchem” (setting [2]) and in the data set “physchem” (setting [6]) was more than 40 mg/mL throughout.
Consider `CCCCCCCCCCCCCC(=O)O` [Myristic Acid (14:0), Myristic Acid], for which the solubility in “physchem” (setting [2]) is less than 40 mg/mL; in the data set “physchem” (setting [5]), more than 20 mg/mL; in the data set “physchem” (setting [6]), less than 40 mg/mL.
Consider `CCCCCC/C=C\CCCCCCCC(=O)O` [Palmitoleic Acid (16:1), Palmitoleic Acid], for which the solubility in “physchem” (setting [2]) and in “physchem” (setting [6]) was more than 40 mg/mL each time.
As for `CCCCCCCCCCC/C=C\CCCCC(=O)O` [Petroselinic Acid (18:1), Petroselinic Acid], the solubility in data set [1] (4 °C) and in data set [1] (60 °C) was more than 40 mg/mL throughout.
As for `CC/C=C\C/C=C\C/C=C\C/C=C\C/C=C\C/C=C\CCC(=O)O` [Docosahexaenoic Acid (22:6), Docosahexaenoic Acid], the solubility in “physchem” (setting [2]) and in the data set “physchem” (setting [6]) was more than 40 mg/mL throughout.
For `CCCCCCCC/C=C/CCCCCCCC(=O)O` [Elaidic Acid (18:1)-trans, Elaidic Acid], the solubility in “physchem” (setting [2]) was less than 40 mg/mL; in the data set “physchem” (setting [6]) it was more than 40 mg/mL.
In the same order, the values of `CCCCCCCC/C=C\CCCCCCCCCCCCCC(=O)O` [Nervonic Acid (24:1), Nervonic Acid] are less than 40 mg/mL and more than 40 mg/mL.
Regarding `CCCCCCCCCCCCCCCCCCCCCCC(=O)O` [Tricosanoic Acid], the solubility in “physchem” (setting [2]) is less than 40 mg/mL; in “physchem” (setting [3]), less than 5 mg/mL; in the data set “physchem” (setting [4]) it was less than 10 mg/mL; in “physchem” (setting [5]), less than 20 mg/mL; in “physchem” (setting [6]), less than 40 mg/mL.
`CCCCCCCCCCCCC(=O)O` [Tridecanoic Acid]: the solubility is less than 40 mg/mL in “physchem” (setting [2]) and more than 40 mg/mL in “physchem” (setting [6]).
As to `CCCCCCCC/C=C\CCCCCCCCCCCC(=O)O` [Erucic Acid (22:1), Erucic Acid], the solubility in “physchem” (4 °C) and in “physchem” (60 °C) was more than 40 mg/mL each time.
With `CCCCCCCCCCCCCCC(=O)O` [Pentadecanoic Acid], the solubility in “physchem” (setting [2]) is less than 40 mg/mL; in the data set “physchem” (setting [6]), more than 40 mg/mL.
For the compound `CCCCCCCCCCCCCCCCC(=O)O` [Heptadecanoic Acid], the solubility was less than 40 mg/mL in “physchem” (setting [2]); more than 5 mg/mL in “physchem” (setting [3]); less than 10 mg/mL in the data set “physchem” (setting [4]); less than 20 mg/mL in the data set “physchem” (setting [5]); less than 40 mg/mL in “physchem” (setting [6]).
`CCCCCCCCCCCC(=O)O` [Lauric acid (12:0), Lauric acid]: the solubility is less than 40 mg/mL in “physchem” (4 °C) and more than 40 mg/mL in “physchem” (60 °C).
For `CCCCCCCCCCCCCCCCCCCCCC(=O)O` [Behenic Acid (22:0), Behenic Acid], the solubility is less than 40 mg/mL in “physchem” (setting [2]); less than 5 mg/mL in the data set “physchem” (setting [3]); less than 10 mg/mL in the data set “physchem” (setting [4]); less than 20 mg/mL in the data set “physchem” (setting [5]); less than 40 mg/mL in the data set “physchem” (setting [6]).
As for `CCCCC/C=C\C/C=C\CCCCCCCC(=O)O` [Linoleic Acid (18:2), Linoleic Acid], the solubility in the data set “physchem” (4 °C) and in the data set “physchem” (60 °C) was more than 40 mg/mL in each case.
On to `CCCCCCCC/C=C\CCCCCCCC(=O)O` [Oleic Acid (18:1)-cis, Oleic Acid], for which the solubility in the data set “physchem” (setting [2]) and in the data set “physchem” (setting [6]) was more than 40 mg/mL in each case. In addition, the solubility in squalene entry in data set [1] (40 mg/ml) is “soluble in squalene”; in data set [1] (4° C. overnight), “remained soluble in squalene”.
As to `CCCCCCCCCCCCCCCCCCCC(=O)O` [Arachidic Acid (20:0), Arachidic Acid], the solubility in “physchem” (setting [2]) was less than 40 mg/mL; in the data set “physchem” (setting [3]), more than 5 mg/mL; in the data set “physchem” (setting [4]) it was less than 10 mg/mL; in the data set “physchem” (setting [5]), less than 20 mg/mL; in “physchem” (setting [6]), less than 40 mg/mL.
On to `CC/C=C\C/C=C\C/C=C\CCCCCCCC(=O)O` [Linolenic Acid (18:3), Linolenic Acid], for which the solubility in “physchem” (setting [2]) and in “physchem” (setting [6]) was more than 40 mg/mL in each case.
As for `CCCCCCCCCCCCCCCCCCCCCCCC(=O)O` [Lignoceric Acid (24:0), Lignoceric Acid], the solubility in “physchem” (setting [2]) was less than 40 mg/mL; in “physchem” (setting [3]), less than 5 mg/mL; in “physchem” (setting [4]) it was less than 10 mg/mL; in the data set “physchem” (setting [5]), less than 20 mg/mL; in the data set “physchem” (setting [6]) it was less than 40 mg/mL.
In the case of `CCCCCCCCCCCCCCCCCCC(=O)O` [Nonadecanoic Acid], the solubility in the data set “physchem” (setting [2]) was less than 40 mg/mL; in “physchem” (setting [3]) it was less than 5 mg/mL; in the data set “physchem” (setting [4]), less than 10 mg/mL; in the data set “physchem” (setting [5]), less than 20 mg/mL; in “physchem” (setting [6]), less than 40 mg/mL.

Broadly, the solubility is the dissolved amount per volume that the medium holds. A higher solubility goes with much dissolved substance.

These data come from patent US9636410B2, “Cationic oil-in-water emulsions” (priority 2011, dated 2017).
